Patent US20190030018A1 (Celgene Corporation, priority 2017, published 2019)
Read-outs that look alike come from different tables or passages of the source.

Tests used:
Experiment in all cases: In vitro combination studies, CellTitre-Glo cell viability
[1] = test system: MV-4-11
[2] = test system: OCI-AML-2
[3] = test system: HNT-34
[4] = test system: F-36-P
[5] = test system: MOLM-13
[6] = test system: KG-1
[7] = test system: NOMO-1
[8] = test system: ML-2
[9] = test system: OCT-AML-3
[10] = test system: HL-60
[11] = MV-4-11, in combination with Compound 1
[12] = OCI-AML-2, in combination with Compound 1
[13] = HNT-34, in combination with Compound 1
[14] = F-36-P, in combination with Compound 1
[15] = MOLM-13, in combination with Compound 1
[16] = KG-1, in combination with Compound 1
[17] = NOMO-1, in combination with Compound 1
[18] = ML-2, in combination with Compound 1
[19] = OCI-AML-3, in combination with Compound 1
[20] = HL-60, in combination with Compound 1

Compound	Synergy analysis for combinations with Compound 1 [1, 11]	Synergy analysis for combinations with Compound 1 [2, 12]	Synergy analysis for combinations with Compound 1 [3, 13]	Synergy analysis for combinations with Compound 1 [4, 14]	Synergy analysis for combinations with Compound 1 [5, 15]	Synergy analysis for combinations with Compound 1 [6, 16]	Synergy analysis for combinations with Compound 1 [7, 17]	Synergy analysis for combinations with Compound 1 [8, 18]	Synergy analysis for combinations with Compound 1 [9, 19]	Synergy analysis for combinations with Compound 1 [10, 20]	Synergy analysis for combinations with Compound 1 [1]	Synergy analysis for combinations with Compound 1 [2]	Synergy analysis for combinations with Compound 1 [3]	Synergy analysis for combinations with Compound 1 [4]	Synergy analysis for combinations with Compound 1 [5]	Synergy analysis for combinations with Compound 1 [6]	Synergy analysis for combinations with Compound 1 [7]	Synergy analysis for combinations with Compound 1 [8]	Synergy analysis for combinations with Compound 1 [9]	Synergy analysis for combinations with Compound 1 [10]
Cn1cc(-c2cc(S(C)(=O)=O)ccc2OCC2CC2)c2ccccc2c1=O [Compound A, 4-[2-(cyclopropylmethoxy)-5-(methanesulfonyl)phenyl]-2-methylisoquinolin-1(2H)-one, reference compound]	No	Yes	No	Yes	Yes	No	Yes	Yes	Yes	No										
COc1ccc(-c2c(-c3ccc(C#N)c(F)c3)nc(N3CCC(N)CC3)n(C)c2=O)cc1F [Compound B, 4-[2-(4-amino-piperidin-1-yl)-5-(3-fluoro-4-methoxy-phenyl)-1-methyl-6-oxo-1,6-dihydropyrimidin-4-yl]-2-fluoro-benzonitrile, reference compound]	No	No	No	Yes	Yes	No	No	No	No	No										
C[C@@H]1C[C@H]2[C@@H]3CCC4=CC(=O)C=C[C@]4(C)[C@@]3(F)[C@@H](O)C[C@]2(C)[C@@]1(O)C(=O)CO [Dexamethason]	No	No	No	No	No	No	Yes	No	No	No										
CC(C)C[C@H](NC(=O)CNC(=O)c1cc(Cl)ccc1Cl)B(O)O [Ixazomib]	No	No	No	No	No	No	No	No	No	No										
CC(C)n1nc(-c2ccc3oc(N)nc3c2)c2c(N)ncnc21 [MLN-0128]	No	Yes	No	Yes	Yes	No	No	No	No	No										
CN(C)C(=N)N=C(N)N [Metformin]	No	No	No	No	No	No	No	No	No	No										
C[C@@]12OC(=O)[C@]1([C@@H](O)[C@@H]1C=CCCC1)NC(=O)[C@@H]2CCCl [NPI-0052]											No	No	No	No	No	No	No	No	No	No
COC(=O)C[C@](O)(CCCC(C)(C)O)C(=O)O[C@@H]1C(OC)=C[C@]23CCCN2CCc2cc4c(cc2[C@H]13)OCO4 [Omacetaxine]	No	No	No	No	No	No	No	No	No	No										
O=C(/C=C/c1ccccc1)NC(NC(=S)Nc1cccc2cccnc12)C(Cl)(Cl)Cl (stereo not drawn) [Salubrinol]	No	No	No	No	No	No	No	No	No	No										
COC(=O)[C@H]1[C@@H](O)[C@@]2(O)c3c(OC)cc(O[C@@H]4O[C@@H]([C@H](O)CO)CO[C@H]4OC)cc3O[C@@]2(c2ccc(OC)cc2)[C@@H]1c1ccccc1 [Silvestrol]	No	No	No	No	No	No	No	No	No	No										
C/C=C(/C)C(=O)O[C@H]1C(C)=C2[C@H]([C@@H]1OC(=O)CCCCCCC)[C@@](C)(OC(C)=O)C[C@H](OC(=O)CCC)[C@@]1(O)[C@H]2OC(=O)[C@@]1(C)O [Thapsigargin]	No	No	No	No	No	No	No	No	No	No										
CC(C)[C@]12O[C@H]1[C@@H]1O[C@]13[C@]1(O[C@H]1C[C@H]1C4=C(CC[C@@]13C)C(=O)OC4)[C@@H]2O [Triptolide]	No	No	No	No	Yes	No	No	No	No	No										
